Here are results for one molecule from ChEMBL document CHEMBL3826966, “A chromatography-free isolation of rohitukine from leaves of Dysoxylum binectariferum: Evaluation for in vitro cytotoxicity, Cdk inhibition and physicochemical properties” (Bioorg Med Chem Lett, 2016).

Molecules are shown by their SMILES.

What all share (assay type): physicochemical
A short description of data set [1]: Partition coefficient, logP of the compound in water/PBS buffer at 25 degC by OECD guidelines based method. The conditions noted are these: octanol/water.
Data set [2] can be described thus: Ionization constant, pKa of the compound in buffer at pH 1 to 13 by uV spectrophotometry.
Data set [3] is described as follows: Distribution coefficient, logD of the compound in water/PBS buffer at pH 7.4 at 25 degC after 20 mins by shake flask method.
Data set [4] is described as follows: Partition coefficient, logP of the compound in water/PBS buffer at pH 7.4 at 25 degC after 20 mins by shake flask method.
Data set [5] can be described thus: Ionization constant, pKa of the compound.

For orientation: logP means a log measure of how a compound divides between an organic and an aqueous phase. High values mean a more lipophilic compound, low ones a more hydrophilic compound. Usually pKa stands for the negative logarithm of the acid dissociation constant. High values mean a group that holds its proton tightly, low ones a group that gives up its proton readily. Broadly, the logD is the decadic logarithm of the distribution of all forms, ionised or not, between an organic phase and buffer at a given pH. `CN1CC[C@H](c2c(O)cc(O)c3c(=O)cc(-c4ccccc4Cl)oc23)[C@H](O)C1` [ALVOCIDIB] displayed a log partition coefficient (logP) in data set [1] of 1.01. The pKa in data set [2] was 5.56; in data set [5], 5.68. Also, the pH-dependent lipophilicity (logD) at 20 min was determined as 1.24 in data set [3] and 0.21 in data set [4].
